Experimental data published in patent US11008572B2, “Methods and compositions for modulating splicing” (SKYHAWK THERAPEUTICS, INC., priority 2017, dated 2021).
Like-named read-outs stand apart in the source and are kept apart here.

Key:
A-673 cells = experiment: Cell viability, crystal violet staining; format: cell-based
Method in brief: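 Readout is absorbance at 570 nm of crystal violet, taken up in 0.1 M sodium citrate in 50% ethanol after staining with 0.5% dye in 25% methanol. Plates held 5×10^3 cells per well, and compounds were added one day after seeding for 72 hours. Data are relative to vehicle, mean±SE.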

[1] = tested on: FOXM1^A2 mRNA and FOXM1^BC mRNA; experiment: Splicing assay (FOXM1), qPCR of isoform mRNAs; format: cell-based; conditions: for IC50: FoxM1 BC mRNA decrease (exon included)
Protocol: Various cells lines were treated with the SMSMs described herein. RNA was then isolated, cDNA synthesized, qPCR performed and the levels of various mRNA targets of the SMSMs were determined. In some instances, RNA was isolated, cDNA synthesized, qPCR performed and the levels of mRNA isoforms in the various cell samples were determined.
On the day of the experiment, a 96-well plate was seeded with the cell lines of interest. The cells were diluted with full growth media to a concentration of 2.0×10^5 cells/mL and 100 μL of cells were added to each well (20,000 cells per well). The cells were treated with a compound immediately after plating.
The compounds were then added to the cell plate using the HP compound dispenser. In the initial experiment, a top concentration of 10 μM and an 8 point 4-fold dilution scheme was used. The stock compounds were made at a concentration of 5 mM, and the DMSO concentration was set to 0.2%. DMSO was used to normalize all the compound-containing wells and the untreated cells.
The treated cells were incubated at 37° C. in a 5% CO2 incubator for the desired amount of time. Plates were placed in a plastic bag with a wet paper towel to prevent evaporation.
RNA was isolated using the Cells to CT kit (ThermoFisher, AM1728). The cells were washed once with 100 μL cold PBS. 50 μL of lysis buffer was added to each well/tube (49.5 μL lysis buffer+0.5 μL DNase I per well/tube). The lysis reaction was mixed and incubated at room temperature for 5 minutes. 5 μL of stop solution was added directly into each cell lysis reaction and mixed by pipetting up and down 5 times. The plates/tubes were incubated at room temperature for 2 minutes then placed on ice if the cDNA synthesis was to be performed immediately. Otherwise, the plates/tubes were stored at −80° C. cDNA synthesis reactions were then performed. Reverse Transcription (RT) Master mix was prepared according to the table below.
40 μL RT master mix was added to PCR tubes or plate wells. 10 μL of RNA was added to each tube/well. The RT thermal cycler program was then run and tubes or plate wells were incubated at 37° C. for 1 hour, then at 95° C. for 5 minutes to deactivate the enzyme.
The qPCR was performed using a QuantStudio 6 instrument (ThermoFisher) and the following cycling conditions and according to the tables below. All samples and standards were analyzed in triplicate. Cycle 1: 2 minutes at 50° C. Cycle 2: 10 minutes at 95° C. Cycle 3 (repeat 40 times): 15 seconds at 95° C., 1 minute at 60° C.
The determined isoform 2and isoform 1quantities were then be used to determine the isoform 2: […] at the various compound concentrations. The PPIA quantities were used in the normalization to account of cell proliferation effects of the compounds.
The dilution necessary to make the top standard is calculated. A top concentration 200,000,000 copies/μL of the stock plasmid was prepared in TE buffer. A series of 10-fold dilutions, also in TE, were then made. A total of 5 μL of each standard was used in a qPCR well to generate samples containing 109 copies, […], 10^7copies, 10^6 copies, 10^5 copies, 10^4 copies, 10^3 copies, 10^2 copies, 10^1copies, and 0 copies.
An assay to measure the FOXM1^A2 mRNA and FOXM1^BC mRNA, or MADD^WT (isoform 4) mRNA and MADD^Ex16 (isoform 3) mRNA, or MAPTau^4R mRNA and MAPTau^3R mRNA simultaneously in cell wells was performed. The RNA values were measured relative to DMSO control and also included a housekeeping gene, PPIA to ensure data was consistent. The mRNA values were measured after 24 hours of incubation with the SMSM compounds.

[2] = Homo sapiens, A673, cell viability, read-out: A-673 IC50 (nM) Cell viability
[3] = read-out: Splice IC50 (nM) FoxM1 BC mRNA decrease (exon included)
[4] = read-out: Splice EC50 (nM) FoxM1 A mRNA increase (exon excluded)
[5] = Homo sapiens, A673, cell viability, read-out: A-673 IC50 (nM), Cell viability
[6] = 24 h, 0.1-1000 nM, 24 hours, read-out: Splice IC50 (nM), FoxM1 BC mRNA decrease (exon included)
[7] = FoxM1 A mRNA increase (exon excluded), 0.1-1000 nM, 24 hours, read-out: Splice EC50 (nM), FoxM1 A mRNA increase (exon excluded)

Molecule | IC50 (A-673 cells; [2]) | IC50 [1, 3] | EC50 [1, 4] | IC50 (A-673 cells; [5]) | IC50 [1, 6] | EC50 [1, 7] | also measured
Oc1cc(-c2cn[nH]c2)ccc1-c1ccc(O[C@H]2C[C@H]3CC[C@@H](C2)N3)nn1 [compound 141, 2-(6-(((1R,3r,5S)-8-azabicyclo[3.2.1]octan-3-yl)oxy)pyridazin-3-yl)-5-(1H-pyrazol-4-yl)phenol] | > 1000 nM | > 1000 nM | > 1000 nM |  |  |  | 
CN(c1ccc(-c2ccc(-c3ccc(=O)n(C)c3)cc2O)nn1)[C@@H]1C[C@H]2CC[C@@H](C1)N2 [compound 241, 5-(4-(6-(((1R,3s,5S)-8-azabicyclo[3.2.1]octan-3-yl)(methyl)amino)pyridazin-3-yl)-3-hydroxyphenyl)-1-methylpyridin-2(1H)-one] |  |  |  | 101 to 250 nM | 10 to 100 nM | < 10 nM | 
CN(c1cnc(-c2ccc(-c3cn[nH]c3)cc2O)cn1)C1CC(C)(C)NC(C)(C)C1 [compound 136, 2-(5-(methyl(2,2,6,6-tetramethylpiperidin-4-yl)amino)pyrazin-2-yl)-5-(1H-pyrazol-4-yl)phenol] | 501 to 1000 nM | 251 to 500 nM | 101 to 250 nM |  |  |  | 
CN(c1ccc(-c2ccc(-c3cn[nH]c3)cc2O)nn1)[C@H]1[C@@H]2CNC[C@@H]21 [compound 137, 2-(6-(((1R,5S,6s)-3-azabicyclo[3.1.0]hexan-6-yl)(methyl)amino)pyridazin-3-yl)-5-(1H-pyrazol-4-yl)phenol] | > 1000 nM | > 1000 nM | > 1000 nM |  |  |  | 
Cc1cn(-c2ccc(-c3ccc(O[C@@H]4C[C@H]5CC[C@@H](C4)N5)nn3)c(O)c2)cn1 [compound 246, 2-(6-(((1R,3s,5S)-8-azabicyclo[3.2.1]octan-3-yl)oxy)pyridazin-3-yl)-5-(4-methyl-1H-imidazol-1-yl)phenol] |  |  |  | 251 to 500 nM | 101 to 250 nM | 10 to 100 nM | 
Cc1cnn(-c2ccc(-c3ccc(N(C)[C@@H]4C[C@H]5CC[C@@H](C4)N5)nn3)c(O)c2)c1 [compound 221, 2-(6-(((1R,3s,5S)-8-azabicyclo[3.2.1]octan-3-yl)(methyl)amino)pyridazin-3-yl)-5-(4-methyl-1H-pyrazol-1-yl)phenol] |  |  |  | 101 to 250 nM | 10 to 100 nM | 10 to 100 nM | 
Cc1nccn1-c1ccc(-c2ccc(N(C)[C@@H]3C[C@H]4CC[C@@H](C3)N4)nn2)c(O)c1 [compound 230, 2-(6-(((1R,3s,5S)-8-azabicyclo[3.2.1]octan-3-yl)(methyl)amino)pyridazin-3-yl)-5-(2-methyl-1H-imidazol-1-yl)phenol] |  |  |  | > 1000 nM | 501 to 1000 nM | 101 to 250 nM | 
2-(6-(((1R,3s,5S)-8-azabicyclo[3.2.1]octan-3-yl)oxy)pyridazin-3-yl)-5-(1H-1,2,3-triazol-4-yl)phenol [compound 253] |  |  |  |  |  | 251 to 500 nM | IC50 (A-673 cells; cell viability, read-out: A-673 IC50 (nM), Cell viability): 501 to 1000 nM; IC50 ([1]; 0.1-1000 nM, 24 hours, read-out: Splice IC50 (nM), FoxM1 BC mRNA decrease (exon included)): 251 to 500 nM
Cc1cn(-c2ccc(-c3ccc(N(C)[C@@H]4C[C@H]5CC[C@@H](C4)N5)nn3)c(O)c2)nn1 [compound 225, 2-(6-(((1R,3s,5S)-8-azabicyclo[3.2.1]octan-3-yl)(methyl)amino)pyridazin-3-yl)-5-(4-methyl-1H-1,2,3-triazol-1-yl)phenol] |  |  |  | 10 to 100 nM | 10 to 100 nM | 10 to 100 nM | 
CN(c1ccc(-c2ccc(-c3cn[nH]c3)cc2O)nn1)[C@H]1C[C@H]2C[C@@H]1CN2 [compound 146, 2-(6-(((1R,4R,5S)-2-azabicyclo[2.2.1]heptan-5-yl)(methyl)amino)pyridazin-3-yl)-5-(1H-pyrazol-4-yl)phenol] | > 1000 nM | 251 to 500 nM | 101 to 250 nM |  |  |  | 
CN(c1ccc(-c2ccc(-c3cn[nH]c3)cc2O)nc1)C1CC(C)(C)NC(C)(C)C1 [compound 135, 2-(5-(methyl(2,2,6,6-tetramethylpiperidin-4-yl)amino)pyridin-2-yl)-5-(1H-pyrazol-4-yl)phenol] | > 1000 nM | > 1000 nM | > 1000 nM |  |  |  | 
CN(c1ccc(-c2ccc(-c3cnn(C(F)(F)F)c3)cc2O)nn1)[C@H]1C[C@]2(C)CC[C@](C)(C1)N2 [compound 186, 2-(6-(((1R,3s,5S)-1,5-dimethyl-8-azabicyclo[3.2.1]octan-3-yl)(methyl)amino)pyridazin-3-yl)-5-(1-(trifluoromethyl)-1H-pyrazol-4-yl)phenol] | > 1000 nM | 101 to 250 nM | 10 to 100 nM |  |  |  | 
CN(c1ccc(-c2ccc(-c3cn[nH]c3)cc2O)nn1)[C@H]1C[C@H]2COC[C@@H](C1)N2 [compound 155, 2-(6-(((1R,5S,7s)-3-oxa-9-azabicyclo[3.3.1]nonan-7-yl)(methyl)amino)pyridazin-3-yl)-5-(1H-pyrazol-4-yl)phenol] | > 1000 nM | > 1000 nM | > 1000 nM |  |  |  | 
CN(c1ccc(-c2ccc(-n3nccn3)cc2O)nn1)[C@@H]1C[C@H]2CCC[C@@H](C1)N2 [compound 275, 2-(6-(((1R,3s,5S)-9-azabicyclo[3.3.1]nonan-3-yl)(methyl)amino)pyridazin-3-yl)-5-(2H-1,2,3-triazol-2-yl)phenol] |  |  |  | < 10 nM | < 10 nM | < 10 nM | 
CNC(=O)c1cc2cc(-c3ccc(N(C)[C@H]4C[C@]5(C)CC[C@](C)(C4)N5)nn3)c(O)cc2o1 [compound 192, 5-(6-(((1R,3s,5S)-1,5-dimethyl-8-azabicyclo[3.2.1]octan-3-yl)(methyl)amino)pyridazin-3-yl)-6-hydroxy-N-methylbenzofuran-2-carboxamide] | 10 to 100 nM | < 10 nM | < 10 nM |  |  |  | 
CN(c1ccc(-c2ccc(-c3cnn(C)c(=O)c3)cc2O)nn1)[C@H]1C[C@]2(C)CC[C@](C)(C1)N2 [compound 170, 5-(4-(6-(((1R,3s,5S)-1,5-dimethyl-8-azabicyclo[3.2.1]octan-3-yl)(methyl)amino)pyridazin-3-yl)-3-hydroxyphenyl)-2-methylpyridazin-3(2H)-one] | < 10 nM | < 10 nM | < 10 nM |  |  |  | 
CN(c1ccc(-c2cc(F)c(-c3cc[nH]c(=O)c3)cc2O)nn1)[C@H]1C[C@]2(C)CCC[C@](C)(C1)N2 [compound 307, 4-(4-(6-(((1R,3s,5S)-1,5-dimethyl-9-azabicyclo[3.3.1]nonan-3-yl)(methyl)amino)pyridazin-3-yl)-2-fluoro-5-hydroxyphenyl)pyridin-2(1H)-one] |  |  |  |  |  |  | IC50 (A-673 cells; Homo sapiens, A673, cell viability, read-out: A-673 IC50 (nM), cell viability): 10 to 100 nM; IC50 ([1]; read-out: Splice IC50 (nM), FoxM1 BC mRNA decrease (exon included)): < 10 nM; EC50 ([1]; read-out: Splice EC50 (nM), FoxM1 A mRNA increase (exon excluded)): < 10 nM
Oc1cc(-c2cn[nH]c2)ccc1-c1ccc(O[C@@H]2C[C@H]3COC[C@@H](C2)N3)nn1 [compound 159, 2-(6-(((1R,5S,7r)-3-oxa-9-azabicyclo[3.3.1]nonan-7-yl)oxy)pyridazin-3-yl)-5-(1H-pyrazol-4-yl)phenol] | 501 to 1000 nM | 501 to 1000 nM | 251 to 500 nM |  |  |  | 
